From paper PMC10436263 (2023)

Key:
Assay in all cases: X-ray crystallography
[1] = tested on: d(5′-CGCGAATTCGCG-3′)2 (AATT) (DNA, duplex) CGCGAATTCGCG
[2] = tested on: d(5′-CGCGATATCGCG-3′)2 (ATAT) (DNA, duplex) CGCGATATCGCG; settings: crystallization details in Table S1 (not seen); 1.63 Å
[3] = tested on: d(5′-CGCGAAAACGCG-3′/5′-CGCGTTTTCGCG-3′) (A4) (DNA, duplex) CGCGAAAACGCG/CGCGTTTTCGCG; settings: crystallization details in Table S1 (not seen); 1.55 Å
[4] = tested on: d(5′-CGCAAAAAAGCG-3′/5′-CGCTTTTTTGCG-3′) (A6) (DNA, duplex) CGCAAAAAAGCG/CGCTTTTTTGCG; settings: crystallization details in Table S1 (not seen); two orientations (8F1S, 8F1V); 2.1 Å
[5] = tested on: d(5′-GCTGGATATATCCAGC-3′)2 (ATATAT) (DNA, duplex) GCTGGATATATCCAGC; settings: 600 mM CaCl2; 10 mM HEPES pH 8.6, 40% PEG200 (well); 1.50 Å
[6] = tested on: d(5′-CGCAAATTTGCG-3′)2 (AAATTT, A3T3) (DNA, duplex) CGCAAATTTGCG; settings: crystallization details in Table S1 (not seen); 1.54 Å

binding ([1]; crystallization details in Table S1 (not seen)) | binding [2] | binding [3] | binding ([1]; 20 mM MgCl2, 80 mM NaCl, 12 mM KCl, 40 mM sodium cacodylate pH 6.0, 12 mM spermine, 10% MPD, two orientations (8EC1 I, 8ED6 II)) | binding [4] | binding [5] | binding [6] | Structure (SMILES)
yes |  |  |  |  |  |  | N=C(N)c1ccc(-c2ccc3cc(-c4ccc(C(=N)N)cc4)[nH]c3c2)cc1
 | yes | yes | yes | yes | yes | yes | N=C(N)c1ccc(-c2ccc3nc(-c4ccc(C(=N)N)cc4)[nH]c3c2)cc1
